Earlier results as cited in PMC12122562, “Phase 1 studies of the indenoisoquinolines LMP776 and LMP744 in patients with solid tumors and lymphomas” (Cancer Chemotherapy and Pharmacology, 2025).
Where two headings read alike, the source gives them in different places.

Experiments:
[1] = test system: naturally occurring lymphomas; design: method as in PMID 30061364; conditions: canines with lymphomas; cited from earlier work
advanced solid tumors = test system: advanced solid tumors; design: method as in PMID 27169793; conditions: cited from earlier work
[2] = test system: patients with advanced solid tumors; conditions: cited from earlier work
[3] = test system: PTEN-null glioblastoma cells; design: method as in PMID 37706203; conditions: combined with the PARP inhibitor niraparib; cited from earlier work

In the case of `COc1cc2c3c(n(CCCN4CCOCC4)c(=O)c2cc1OC)-c1cc2c(cc1C3=O)OCO2` [LMP400], the Responders [1] is given as 9 of 27, the Response rate [1] is given as 33.3% and the Best response (advanced solid tumors) is given as “stable disease”. For the same compound, the “Nausea, prevalence” value [2] was 5%, the “Alanine aminotransferase increased, patients” value ([2]; grade 2, n=21, ref 1 (suppl.)) was 3 and the “Anemia, patients” value ([2]; grade 2, n=21, ref 1 (suppl.)) was 8. For the same compound, the “Aspartate aminotransferase increased, patients” value ([2]; grade 2, n=21, ref 1 (suppl.)) was 2, the “Blood bilirubin increased, patients” value ([2]; grade 2, n=21, ref 1 (suppl.)) was 2 and the “Diarrhea, patients” value ([2]; grade 2, n=21, ref 1 (suppl.)) was 1. The “Dyspepsia, patients” value ([2]; grade 2, n=21, ref 1 (suppl.)) was 1, the “Fatigue, patients” value ([2]; grade 2, n=21, ref 1 (suppl.)) was 3 and the “Hyperkalemia, patients” value ([2]; grade 2, n=21, ref 1 (suppl.)) was 1. For the same compound, the “Hypophosphatemia, patients” value ([2]; grade 2, n=21, ref 1 (suppl.)) was 1, the “Lethargy, patients” value ([2]; grade 2, n=21, ref 1 (suppl.)) was 1 and the “Lymphocyte count decreased, patients” value ([2]; grade 2, n=21, ref 1 (suppl.)) was 4. For the same compound, the “Nausea, patients” value ([2]; grade 2, n=21, ref 1 (suppl.)) was 1, the “Neutropenia, patients” value ([2]; grade 2, n=21, ref 1 (suppl.)) was 1 and the “Weight loss, patients” value ([2]; grade 2, n=21, ref 1 (suppl.)) was 1. The “White blood cell count decreased, patients” value ([2]; grade 2, n=21, ref 1 (suppl.)) was 1, the “Anemia, patients” value ([2]; grade 3, n=21, ref 1 (suppl.)) was 2 and the “Fatigue, patients” value ([2]; grade 3, n=21, ref 1 (suppl.)) was 1. For the same compound, the “Febrile Neutropenia, patients” value ([2]; grade 3, n=21, ref 1 (suppl.)) was 2, the “Lymphocyte count decreased, patients” value ([2]; grade 3, n=21, ref 1 (suppl.)) was 3 and the “White blood cell count decreased, patients” value ([2]; grade 3, n=21, ref 1 (suppl.)) was 1. The “Neutropenia, patients” value ([2]; grade 4, n=21, ref 1 (suppl.)) was 3, the “Platelet count decreased, patients” value ([2]; grade 4, n=21, ref 1 (suppl.)) was 3 and the “White blood cell count decreased, patients” value ([2]; grade 4, n=21, ref 1 (suppl.)) was 2. For the same compound, the “Cell killing activity in combination” value [3] was “synergistic cell killing activity”.
